Data reported in patent EP2423181A1, “Multitarget substituted biphenyl diol derivatives” (PROUS INSTITUTE FOR BIOMEDICAL RESEARCH S.A., priority 2010, dated 2012).

Key:
mice [1] = test: Hot plate test (analgesic activity); type: in vivo
Experimental: The hot plate test was used as an animal model of thermally-induced pain. The inhibitory activity measured on the time licking and biting induced by temperature (30 sec max at 55°C) indicates analgesic effect. […] Table 13. Analgesic activity of example 1 in the hot plate test

ERα = ERα (Homo sapiens, UniProt P03372); test: Inhibition of ERα; type: binding; settings: slight, non-significant
Sequence of ERα (P03372 whole entry, species assumed): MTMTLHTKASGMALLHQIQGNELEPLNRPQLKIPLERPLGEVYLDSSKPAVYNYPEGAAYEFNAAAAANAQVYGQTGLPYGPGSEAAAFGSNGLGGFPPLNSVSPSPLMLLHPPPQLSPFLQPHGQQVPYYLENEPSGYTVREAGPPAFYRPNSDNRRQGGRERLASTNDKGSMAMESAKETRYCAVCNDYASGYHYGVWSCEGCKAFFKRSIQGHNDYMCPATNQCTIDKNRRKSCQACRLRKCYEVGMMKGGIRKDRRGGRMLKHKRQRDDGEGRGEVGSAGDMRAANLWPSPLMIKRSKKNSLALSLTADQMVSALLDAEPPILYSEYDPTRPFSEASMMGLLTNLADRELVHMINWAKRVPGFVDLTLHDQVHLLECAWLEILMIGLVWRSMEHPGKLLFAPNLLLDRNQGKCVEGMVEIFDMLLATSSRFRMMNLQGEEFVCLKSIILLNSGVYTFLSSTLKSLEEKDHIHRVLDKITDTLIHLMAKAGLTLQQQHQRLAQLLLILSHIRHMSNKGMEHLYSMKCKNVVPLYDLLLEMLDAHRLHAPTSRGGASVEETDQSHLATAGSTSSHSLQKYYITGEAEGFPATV

mice [2] = test: Hot plate test (analgesic activity); type: in vivo; remark: listed apart in the source

C=CCc1ccc(O)c(-c2cc(CC=C)ccc2OC(CCNC)c2ccccc2)c1.Cl (stereo not shown) [Example 1, 5,5'-Diallyl-2'-[3-(methylamino)-1-phenylpropoxy]biphenyl-2-ol hydrochloride]
Time Licking and biting (sec) Late phase (15-30 min) (mice [1]; dose 5 mg/kg i.p.): 150 s | Time Licking and biting (sec) Late phase (15-30 min) (mice [1]; dose 10 mg/kg i.p.): 150 s | Time Licking and biting (sec) Late phase (15-30 min) (mice [1]; dose 30 mg/kg i.p.): 20 s | antinociceptive activity in the hot plate test (mice [1]; dose not given): antinociceptive activity | inhibition at 10 µM (ERα): 13% | Time Licking and biting (sec) Early phase (0-5 min) (mice [2]; dose 1 mg/kg i.p.): 57 s | Time Licking and biting (sec) Late phase (15-30 min) (mice [2]; dose 1 mg/kg i.p.): 200 s | Time Licking and biting (sec) Early phase (0-5 min) (mice [2]; dose 5 mg/kg i.p.): 45 s | Time Licking and biting (sec) Early phase (0-5 min) (mice [2]; dose 10 mg/kg i.p.): 38 s | Time Licking and biting (sec) Early phase (0-5 min) (mice [2]; dose 30 mg/kg i.p.): 30 s
